Positions of bridges follow the written chain, without caps; N, C: chain ends. Non-standard residues stand in square brackets, D forms with d. Residues, ends and D or L forms follow the SMILES beside them. R8 = C=CCCCCCC[C@@](C)(N)C(=O)O; S5 = C=CCCC[C@](C)(N)C(=O)O; Nle = CCCC[C@H](N)C(=O)O
Tests used:
Figure 9 = experiment: Figure 9
Excerpt: Table printed on a drawing sheet, Figure 9
Footnotes: ** literature values
First reader's note: The Tesamorelin rows are literature values, and their species, dose and route are printed inside the label cell.

growth hormone = experiment: Plasma PD study in rats: growth hormone production/release; format: in vivo, Sprague-Dawley rats; conditions: FIG. 10
Method: Five peptidomimetic macrocycles of the invention (SP-1, SP-6, SP-8, SP-21, SP-32), as well as sermorelin, were studied to determine pharmacokinetic and pharmacodynamic parameters in rats. Male Sprague-Dawley rats (300 g, non-fasted, cannulated) were used. The study had three arms: IV administration, SC administration, and SC administration (vehicle control). For experiments using sermorelin, a dose level of 3 mg/kg IV/SC bolus was used (dose volume of 3 mL/kg dose and dose concentration of 1 mg/mL). The vehicle used was: 10 wt % N, N-Dimethylacetamide, 10 wt % DMSO, 2 wt % Solutol HS 15 in water for injection containing 45 mg/mL (4.5 wt %) Mannitol and 25 mM (0.38 wt %) Histidine (pH 7.5; 320 mOsm/kg). The peptide was first dissolved at high concentration in DMA and DMSO before a second dilution in Solutol vehicle.
For experiments using peptidomimetic macrocycles, 0.1 mL of DMA and 0.1 mL of DMSO were used to combine with each mg of macrocycle (˜4.3-4.5 mg of macrocycle used in each experiment). Sonication was used to ensure complete solubilization. 0.8 mL of Solutol vehicle was used for each mg of macrocycle in DMA/DMSO. The solutions were mixed gently with pipet or light vortexing. Fresh vials were used for each day of dosing, and macrocycles were stored solid at −20° C. prior to formulation. […]

[1] = cited from earlier work

Compound	AUCinf | (Figure 9) [ng·h/mL]	Clp | (Figure 9) [mL/min/kg]	MRT | hr (Figure 9) [h]	Vdss | (Figure 9) [L/kg]	t 1/2 | hr (Figure 9) [h]	stimulation of growth hormone production (growth hormone)	half-life of GHRH after intravenous injection [1] [h]
CCCC[C@H](NC(=O)[C@@H](NC(=O)[C@H](CC(=O)O)NC(=O)[C@H](CCC(N)=O)NC(=O)[C@H](CC(C)C)NC(=O)[C@]1(C)CCCC=CCCCCCC[C@@](C)(NC(=O)[C@H](CC(C)C)NC(=O)[C@@H](NC(=O)[C@H](CCCCN)NC(=O)[C@H](CCCNC(=N)N)NC(=O)[C@H](Cc2ccc(O)cc2)NC(=O)[C@H](CO)NC(=O)[C@]2(C)CCCC=CCCC[C@](C)(NC(=O)[C@H](CC(=O)O)NC(=O)[C@@H](C)NC(=O)[C@@H](N)Cc3ccc(O)cc3)C(=O)N[C@@H]([C@@H](C)CC)C(=O)N[C@@H](Cc3ccccc3)C(=O)N[C@@H]([C@@H](C)O)C(=O)N2)C(C)C)C(=O)N[C@@H](CCC(N)=O)C(=O)N[C@@H](CC(C)C)C(=O)N[C@@H](CO)C(=O)N[C@@H](C)C(=O)N[C@@H](CCCNC(=N)N)C(=O)N[C@@H](CCCCN)C(=O)N1)[C@@H](C)CC)C(=O)N[C@@H](CO)C(=O)N[C@@H](CCCNC(=N)N)C(N)=O [SP-6] (H-Y[dA]D[S5]IFT[S5]SYRKVL[R8]QLSARK[S5]LQDI[Nle]SR-NH2; staple 4-8, 15-22)	23477	2.13	3.7	0.474	20.6		
CCCC[C@@H]1NC(=O)[C@H]([C@@H](C)CC)NC(=O)[C@H](CC(=O)O)NC(=O)[C@H](CCC(N)=O)NC(=O)[C@H](CC(C)C)NC(=O)[C@H](CC(C)C)NC(=O)[C@](C)(NC(=O)[C@H](CCCNC(=N)N)NC(=O)[C@H](C)NC(=O)[C@H](CO)NC(=O)[C@H](CC(C)C)NC(=O)[C@H](CCC(N)=O)NC(=O)CNC(=O)[C@H](CC(C)C)NC(=O)[C@@H](NC(=O)[C@H](CCCCN)NC(=O)[C@H](CCCNC(=N)N)NC(=O)[C@H](Cc2ccc(O)cc2)NC(=O)[C@H](CO)NC(=O)[C@]2(C)CCCC=CCCC[C@](C)(NC(=O)[C@H](CC(=O)O)NC(=O)[C@@H](C)NC(=O)[C@@H](N)Cc3ccc(O)cc3)C(=O)N[C@@H]([C@@H](C)CC)C(=O)N[C@@H](Cc3ccccc3)C(=O)N[C@@H]([C@@H](C)O)C(=O)N2)C(C)C)CCCCCCC=CCCC[C@@](C)(C(=O)N[C@@H](CCCNC(=N)N)C(N)=O)NC1=O [SP-8] (H-Y[dA]D[S5]IFT[S5]SYRKVLGQLSAR[R8]LLQDI[Nle][S5]R-NH2; staple 4-8, 21-28)						stimulation of growth hormone production	
CCCC[C@H](NC(=O)[C@@H](NC(=O)[C@]1(C)CCCC=CCCC[C@](C)(NC(=O)[C@H](CCCNC(=N)N)NC(=O)[C@H](C)NC(=O)[C@H](CO)NC(=O)[C@H](CC(C)C)NC(=O)[C@H](CCC(N)=O)NC(=O)CNC(=O)[C@H](CC(C)C)NC(=O)[C@@H](NC(=O)[C@]2(C)CCCC=CCCCCCC[C@@](C)(NC(=O)[C@H](C)NC(=O)[C@H](CC(=O)O)NC(=O)[C@@H](C)NC(=O)[C@@H](N)Cc3ccc(O)cc3)C(=O)N[C@@H](Cc3ccccc3)C(=O)N[C@@H]([C@@H](C)O)C(=O)N[C@@H](CC(N)=O)C(=O)N[C@@H](CO)C(=O)N[C@@H](Cc3ccc(O)cc3)C(=O)N[C@@H](CCCNC(=N)N)C(=O)N2)C(C)C)C(=O)N[C@@H](CC(C)C)C(=O)N[C@@H](CC(C)C)C(=O)N[C@@H](CCC(N)=O)C(=O)N1)[C@@H](C)CC)C(=O)N[C@@H](CO)C(=O)N[C@@H](CCCNC(=N)N)C(N)=O [SP-21] (H-Y[dA]DA[R8]FTNSYR[S5]VLGQLSAR[S5]LLQ[S5]I[Nle]SR-NH2; staple 5-12, 21-25)		1.65	5.3	0.524	10.1		
CCCC[C@H](NC(=O)[C@@H](NC(=O)[C@H](CC(=O)O)NC(=O)[C@H](CCC(N)=O)NC(=O)[C@H](CC(C)C)NC(=O)[C@H](CC(C)C)NC(=O)[C@H](CCCCN)NC(=O)[C@H](CCCNC(=N)N)NC(=O)[C@]1(C)CCCC=CCCCCCC[C@@](C)(NC(=O)[C@H](CCCNC(=N)N)NC(=O)[C@H](Cc2ccc(O)cc2)NC(=O)[C@H](CO)NC(=O)[C@H](CC(N)=O)NC(=O)[C@@H](NC(=O)[C@H](Cc2ccccc2)NC(=O)[C@@H](NC(=O)[C@H](C)NC(=O)[C@H](CC(=O)O)NC(=O)[C@@H](C)NC(=O)[C@@H](N)Cc2ccc(O)cc2)[C@@H](C)CC)[C@@H](C)O)C(=O)N[C@@H](C(C)C)C(=O)N[C@@H](CC(C)C)C(=O)NCC(=O)N[C@@H](CCC(N)=O)C(=O)N[C@@H](CC(C)C)C(=O)N[C@@H](CO)C(=O)N1)[C@@H](C)CC)C(=O)N[C@@H](CO)C(=O)N[C@@H](CCCNC(=N)N)C(N)=O [SP-32] (H-Y[dA]DAIFTNSYR[R8]VLGQLS[S5]RKLLQDI[Nle]SR-NH2; staple 12-19)		1.35	2.3	0.19	9.7		
CC/C=C/CC(=O)N[C@@H](Cc1ccc(O)cc1)C(=O)N[C@@H](C)C(=O)N[C@@H](CC(=O)O)C(=O)N[C@@H](C)C(=O)N[C@H](C(=O)N[C@@H](Cc1ccccc1)C(=O)N[C@H](C(=O)N[C@@H](CC(N)=O)C(=O)N[C@@H](CO)C(=O)N[C@@H](Cc1ccc(O)cc1)C(=O)N[C@@H](CCCNC(=N)N)C(=O)N[C@@H](CCCCN)C(=O)N[C@H](C(=O)N[C@@H](CC(C)C)C(=O)NCC(=O)N[C@@H](CCC(N)=O)C(=O)N[C@@H](CC(C)C)C(=O)N[C@@H](CO)C(=O)N[C@@H](C)C(=O)N[C@@H](CCCNC(=N)N)C(=O)N[C@@H](CCCCN)C(=O)N[C@@H](CC(C)C)C(=O)N[C@@H](CC(C)C)C(=O)N[C@@H](CCC(N)=O)C(=O)N[C@@H](CC(=O)O)C(=O)N[C@H](C(=O)N[C@@H](CCSC)C(=O)N[C@@H](CO)C(=O)N[C@@H](CCCNC(=N)N)C(=O)N[C@@H](CCC(N)=O)C(=O)N[C@@H](CCC(N)=O)C(=O)NCC(=O)N[C@@H](CCC(=O)O)C(=O)N[C@@H](CO)C(=O)N[C@@H](CC(N)=O)C(=O)N[C@@H](CCC(N)=O)C(=O)N[C@@H](CCC(=O)O)C(=O)N[C@@H](CCCNC(=N)N)C(=O)NCC(=O)N[C@@H](C)C(=O)N[C@@H](CCCNC(=N)N)C(=O)N[C@@H](C)C(=O)N[C@@H](CCCNC(=N)N)C(=O)N[C@@H](CC(C)C)C(N)=O)[C@@H](C)CC)C(C)C)[C@@H](C)O)[C@@H](C)CC [Tesamorelin, dog 0.1 µg/kg IV**]	5301				0.4		
GHRH: Human GHRH (Growth Hormone-Releasing Hormone), a 44-amino-acid peptide							0.167 to 0.2
